From patent EP4721732A1, “PHARMACEUTICAL COMPOSITION CONTAINING CRISDESALAZINE WITH IMPROVED STABILITY AND DISSOLUTION RATE” (priority 2023, dated 2024)
In brackets after ≈: the same amount, converted by molar mass. Where two headings read alike, the source gives them in different places.

Assays:
[1] = pH-dependent equilibrium solubility; format: physicochemical; details: for Equilibrium Solubility: BLOD = below limit of detection; for solubility thermodynamic at 12 h / solubility thermodynamic at 24 h: purified water, thermodynamic from solid
Protocol: First, the inventors of the present invention measured the pH-dependent equilibrium solubility of crisdesalazine (2-hydroxy-5-[2-(4-trifluoromethylphenyl)ethylamino]benzoic acid), and the results of the solubility at 12 hours and 24 hours were as shown in Table 1 and Figure 1 below. […]

[2] = Compatibility evaluation of crisdesalazine with excipients; format: physicochemical
Description: One embodiment of the present invention provides a pharmaceutical composition substantially free of lactose. The inventors conducted "compatibility" evaluation experiments between crisdesalazine and various excipients.
In other words, the long-term stability of crisdesalazine and lactose was difficult to predict based solely on short-term compatibility evaluation tests.
However, when compressed to a target hardness of 7-9 kPa, the target hardness was not achieved. The appearance of the tablet changed to a bluish gray color during the short period between mixing and compression.

SMILES: O=C(O)c1cc(NCCc2ccc(C(F)(F)F)cc2)ccc1O [crisdesalazine, 2-hydroxy-5-[2-(4-trifluoromethylphenyl)ethylamino]benzoic acid]
- Equilibrium Solubility ([1]; pH 3, 12 hours): BLOD
- Equilibrium Solubility ([1]; pH 3, 24 hours): BLOD
- Equilibrium Solubility ([1]; pH 4, 12 hours): BLOD
- solubility thermodynamic at 12 h ([1]; pH 1, simulated gastric fluid, pH 1, 12 hours, read-out: Equilibrium Solubility): 16.4 µg/mL (≈ 50.4 µM)
- solubility thermodynamic at 24 h ([1]; pH 1, simulated gastric fluid, pH 1, 24 hours, read-out: Equilibrium Solubility): 15.7 µg/mL (≈ 48.3 µM)
- solubility thermodynamic at 12 h ([1]; pH 2, simulated gastric fluid, pH 2, 12 hours, read-out: Equilibrium Solubility): 2.6 µg/mL (≈ 7.99 µM)
- solubility thermodynamic at 24 h ([1]; pH 2, simulated gastric fluid, pH 2, 24 hours, read-out: Equilibrium Solubility): 1.7 µg/mL (≈ 5.23 µM)
- solubility thermodynamic at 24 h ([1]; pH 4, aqueous buffer, pH 4, 24 hours, read-out: Equilibrium Solubility): 2.2 µg/mL (≈ 6.76 µM)
- solubility thermodynamic at 12 h ([1]; pH 5, aqueous buffer, pH 5, 12 hours, read-out: Equilibrium Solubility): 0.7 µg/mL (≈ 2.15 µM)
- solubility thermodynamic at 24 h ([1]; pH 5, aqueous buffer, pH 5, 24 hours, read-out: Equilibrium Solubility): 5.9 µg/mL (≈ 18.1 µM)
- solubility thermodynamic at 12 h ([1]; pH 6, aqueous buffer, pH 6, 12 hours, read-out: Equilibrium Solubility): 6.4 µg/mL (≈ 19.7 µM)
- solubility thermodynamic at 24 h ([1]; pH 6, aqueous buffer, pH 6, 24 hours, read-out: Equilibrium Solubility): 11.5 µg/mL (≈ 35.4 µM)
- solubility thermodynamic at 12 h ([1]; pH 7, aqueous buffer, pH 7, 12 hours, read-out: Equilibrium Solubility): 38.2 µg/mL (≈ 117 µM)
- solubility thermodynamic at 24 h ([1]; pH 7, aqueous buffer, pH 7, 24 hours, read-out: Equilibrium Solubility): 39.7 µg/mL (≈ 122 µM)
- solubility thermodynamic at 12 h ([1]; pH 7, aqueous buffer, pH 7 or lower, 12 hours, read-out: equilibrium solubility in purified water): ≤ 38.2 µg/mL
- solubility thermodynamic at 24 h ([1]; pH 7, aqueous buffer, pH 7 or lower, 24 hours, read-out: equilibrium solubility in purified water): ≤ 39.7 µg/mL
- solubility thermodynamic at 12 h ([1]; pH 8, aqueous buffer, pH 8, 12 hours, read-out: Equilibrium Solubility): 254 µg/mL (≈ 781 µM)
- solubility thermodynamic at 24 h ([1]; pH 8, aqueous buffer, pH 8, 24 hours, read-out: Equilibrium Solubility): 252 µg/mL (≈ 773 µM)
- solubility thermodynamic at 12 h ([1]; pH 9, aqueous buffer, pH 9, 12 hours, read-out: Equilibrium Solubility): 1210 µg/mL (≈ 3720 µM)
- solubility thermodynamic at 24 h ([1]; pH 9, aqueous buffer, pH 9, 24 hours, read-out: Equilibrium Solubility): 1230 µg/mL (≈ 3780 µM)
- solubility thermodynamic at 12 h ([1]; pH 10, aqueous buffer, pH 10, 12 hours, read-out: Equilibrium Solubility): 685 µg/mL (≈ 2110 µM)
- solubility thermodynamic at 24 h ([1]; pH 10, aqueous buffer, pH 10, 24 hours, read-out: Equilibrium Solubility): 678 µg/mL (≈ 2080 µM)
- solubility thermodynamic at 12 h ([1]; pH 11, aqueous buffer, pH 11, 12 hours, read-out: Equilibrium Solubility): 662 µg/mL (≈ 2040 µM)
- solubility thermodynamic at 24 h ([1]; pH 11, aqueous buffer, pH 11, 24 hours, read-out: Equilibrium Solubility): 718 µg/mL (≈ 2210 µM)
- solubility thermodynamic at 12 h ([1]; pH 12, aqueous buffer, pH 12, 12 hours, read-out: Equilibrium Solubility): 1220 µg/mL (≈ 3770 µM)
- solubility thermodynamic at 24 h ([1]; pH 12, aqueous buffer, pH 12, 24 hours, read-out: Equilibrium Solubility): 1220 µg/mL (≈ 3760 µM)
- compatibility with lactose ([2]; 13-week compatibility study, only minor powder coagulation, minimal changes in impurities): judged to be compatible
- compatibility with excipients ([2]; with calcium phosphate dibasic, hydroxypropyl methylcellulose (HPMC), meglumine, magnesium oxide (MgO)): poor compatibility
